Patent US9895466B2, “Liposomal drug delivery system for bone cements” (UNIVERSITY COLLEGE CARDIFF CONSULTANTS LIMITED, priority 2013, dated 2018)

Tested on: Staphylococcus aureus (S. aureus)
Experiment: Microbial growth and zones of inhibition on agar plates
Type: cell-based
Conditions: 24 hours at 37° C.
Method: 10 mm diameter by 2 mm thick cylindrical bone cement samples were prepared as previously described for Palacos R, Palacos R+G and Palacos R with 200 mg of L61 liposomal gentamicin sulphate. Tryptone soya agar (TSA) was prepared by dissolving 40 g of tryptone soy agar medium in one liter of distilled water. The solution was boiled for one minute then sterilized in an autoclave at 121° C. for 15 minutes. The solution was allowed to cool to 45-50° C. before being dispensed into petri dishes (9 cm diameter). The petri dishes were cooled to room temperature then stored at 8-15° C. until use. Staphylococcus aureus (S. aureus) was cultured in tryptic soy broth (TSB) for 18-24 hours at 37° C. A sterile cotton swab was used to spread the inoculum across the TSA petri dish. The petri dish was turned by 60° and the process was repeated to ensure complete surface coverage. A 10 ug gentamicin standard disc was placed on the petri dish as a control and pressure was applied to the top of the disc to ensure full surface contact. […] The petri dish was then incubated at 37° C. for 18-24 hours, after which, the zones of inhibition around the samples and gentamicin disc were measured. Images of the zones of inhibition were taken and measured using ImageJ software (National Institutes of Health, Maryland, USA). The zones of inhibition were measured as the radius of the zone minus the radius of the sample. […]

Substance: gentamicin sulphate
- Zone of inhibition against S. aureus: created a zone of inhibition
